Assay results reported in publication doi:10.1101/2021.09.30.462449v1 (biorxiv, 2021).

Legend:
Test in all cases: biochemical
Conditions in all cases: read-out: % inhibition mean (Lanthascreen)
EIF2AK2 (PKR) = EIF2AK2 (PKR) (Homo sapiens, UniProt P19525)
AMPK (A1/B1/G2) = AMPK (A1/B1/G2) (Homo sapiens, UniProt Q13131)
MAP3K5 (ASK1) = MAP3K5 (ASK1) (Homo sapiens, UniProt Q99683)
MYO3B (MYO3 beta) = MYO3B (MYO3 beta) (Homo sapiens, UniProt Q8WXR4)
ALK R1275Q = ALK R1275Q (Homo sapiens, UniProt Q9UM73, R1275Q)
TLK1 = TLK1 (Homo sapiens, UniProt Q9UKI8)
BMPR2 = BMPR2 (Homo sapiens, UniProt Q13873)
KIT D820E = KIT D820E (Homo sapiens, UniProt P10721, D820E)
Chain of KIT D820E (P10721 whole entry D820E): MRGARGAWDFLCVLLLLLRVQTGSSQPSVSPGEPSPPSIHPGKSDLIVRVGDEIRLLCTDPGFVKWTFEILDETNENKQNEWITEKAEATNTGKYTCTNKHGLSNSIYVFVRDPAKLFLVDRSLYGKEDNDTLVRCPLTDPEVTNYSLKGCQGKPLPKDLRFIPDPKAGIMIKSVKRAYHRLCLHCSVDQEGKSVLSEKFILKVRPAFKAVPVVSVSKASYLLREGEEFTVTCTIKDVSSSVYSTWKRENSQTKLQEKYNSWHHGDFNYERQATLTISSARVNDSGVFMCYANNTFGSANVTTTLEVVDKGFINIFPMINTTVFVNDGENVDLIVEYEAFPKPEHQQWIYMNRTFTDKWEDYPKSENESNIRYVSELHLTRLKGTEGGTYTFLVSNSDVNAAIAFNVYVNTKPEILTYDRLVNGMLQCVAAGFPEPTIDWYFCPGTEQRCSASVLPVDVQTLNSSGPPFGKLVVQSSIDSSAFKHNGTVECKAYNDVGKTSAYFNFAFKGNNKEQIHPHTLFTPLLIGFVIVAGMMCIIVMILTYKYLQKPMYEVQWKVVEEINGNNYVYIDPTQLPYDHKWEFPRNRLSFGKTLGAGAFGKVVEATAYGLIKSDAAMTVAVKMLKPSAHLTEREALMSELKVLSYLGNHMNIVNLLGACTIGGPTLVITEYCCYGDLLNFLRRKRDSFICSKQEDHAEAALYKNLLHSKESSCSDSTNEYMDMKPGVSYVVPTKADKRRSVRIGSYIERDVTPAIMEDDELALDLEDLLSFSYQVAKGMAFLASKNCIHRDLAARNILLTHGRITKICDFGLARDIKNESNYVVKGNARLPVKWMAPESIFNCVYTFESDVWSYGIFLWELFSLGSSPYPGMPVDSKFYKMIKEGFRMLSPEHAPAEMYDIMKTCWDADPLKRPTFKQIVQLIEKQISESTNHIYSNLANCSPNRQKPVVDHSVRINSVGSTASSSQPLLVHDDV

SIK3 = SIK3 (Homo sapiens, UniProt Q9Y2K2)
BRSK2 = BRSK2 (Homo sapiens, UniProt Q8IWQ3)
BRAF = BRAF (Homo sapiens, UniProt P15056)
EPHA6 = EPHA6 (Homo sapiens, UniProt Q9UF33)
DDR1 = DDR1 (Homo sapiens, UniProt Q08345)
CDK2/cyclin E1 = CDK2/cyclin E1 (Homo sapiens, UniProt P24941)
CASK = CASK (Homo sapiens, UniProt O14936)
Chain of CASK (O14936 whole entry): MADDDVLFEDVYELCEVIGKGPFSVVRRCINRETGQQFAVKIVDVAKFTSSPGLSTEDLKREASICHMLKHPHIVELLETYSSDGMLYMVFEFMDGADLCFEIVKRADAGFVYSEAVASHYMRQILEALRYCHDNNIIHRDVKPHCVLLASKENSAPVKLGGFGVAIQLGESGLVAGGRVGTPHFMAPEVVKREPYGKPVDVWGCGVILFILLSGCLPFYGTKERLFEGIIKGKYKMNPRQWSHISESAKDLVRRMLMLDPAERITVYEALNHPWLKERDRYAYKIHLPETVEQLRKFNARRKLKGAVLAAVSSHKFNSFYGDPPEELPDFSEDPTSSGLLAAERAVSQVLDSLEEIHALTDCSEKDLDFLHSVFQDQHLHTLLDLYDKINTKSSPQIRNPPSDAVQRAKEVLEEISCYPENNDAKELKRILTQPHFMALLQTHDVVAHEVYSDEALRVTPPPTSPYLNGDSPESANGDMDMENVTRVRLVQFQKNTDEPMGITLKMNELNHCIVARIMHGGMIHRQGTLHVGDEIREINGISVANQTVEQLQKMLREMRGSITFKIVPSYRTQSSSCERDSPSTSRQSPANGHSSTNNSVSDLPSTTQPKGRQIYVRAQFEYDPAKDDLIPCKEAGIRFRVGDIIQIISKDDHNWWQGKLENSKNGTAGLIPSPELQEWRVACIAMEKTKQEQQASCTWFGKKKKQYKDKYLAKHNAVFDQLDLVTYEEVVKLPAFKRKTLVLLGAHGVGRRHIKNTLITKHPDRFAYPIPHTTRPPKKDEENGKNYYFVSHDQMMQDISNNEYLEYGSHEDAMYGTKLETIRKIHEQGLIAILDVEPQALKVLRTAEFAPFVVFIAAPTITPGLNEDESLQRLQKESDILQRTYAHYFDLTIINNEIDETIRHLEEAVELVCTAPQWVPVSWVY

ACVR2A = ACVR2A (Homo sapiens, UniProt P27037)
NUAK2 = NUAK2 (Homo sapiens, UniProt Q9H093)
MAP2K2 (MEK2) = MAP2K2 (MEK2) (Homo sapiens, UniProt P36507)
AXL R499C = AXL R499C (Homo sapiens, UniProt P30530, R499C)
CDK2/cyclin A1 = CDK2/cyclin A1 (Homo sapiens, UniProt P24941)
FYN A = FYN A (Homo sapiens, UniProt P06241)
MERTK (cMER) A708S = MERTK (cMER) A708S (Homo sapiens, UniProt Q12866, A708S)
Chain of MERTK (cMER) A708S (Q12866 whole entry A708S): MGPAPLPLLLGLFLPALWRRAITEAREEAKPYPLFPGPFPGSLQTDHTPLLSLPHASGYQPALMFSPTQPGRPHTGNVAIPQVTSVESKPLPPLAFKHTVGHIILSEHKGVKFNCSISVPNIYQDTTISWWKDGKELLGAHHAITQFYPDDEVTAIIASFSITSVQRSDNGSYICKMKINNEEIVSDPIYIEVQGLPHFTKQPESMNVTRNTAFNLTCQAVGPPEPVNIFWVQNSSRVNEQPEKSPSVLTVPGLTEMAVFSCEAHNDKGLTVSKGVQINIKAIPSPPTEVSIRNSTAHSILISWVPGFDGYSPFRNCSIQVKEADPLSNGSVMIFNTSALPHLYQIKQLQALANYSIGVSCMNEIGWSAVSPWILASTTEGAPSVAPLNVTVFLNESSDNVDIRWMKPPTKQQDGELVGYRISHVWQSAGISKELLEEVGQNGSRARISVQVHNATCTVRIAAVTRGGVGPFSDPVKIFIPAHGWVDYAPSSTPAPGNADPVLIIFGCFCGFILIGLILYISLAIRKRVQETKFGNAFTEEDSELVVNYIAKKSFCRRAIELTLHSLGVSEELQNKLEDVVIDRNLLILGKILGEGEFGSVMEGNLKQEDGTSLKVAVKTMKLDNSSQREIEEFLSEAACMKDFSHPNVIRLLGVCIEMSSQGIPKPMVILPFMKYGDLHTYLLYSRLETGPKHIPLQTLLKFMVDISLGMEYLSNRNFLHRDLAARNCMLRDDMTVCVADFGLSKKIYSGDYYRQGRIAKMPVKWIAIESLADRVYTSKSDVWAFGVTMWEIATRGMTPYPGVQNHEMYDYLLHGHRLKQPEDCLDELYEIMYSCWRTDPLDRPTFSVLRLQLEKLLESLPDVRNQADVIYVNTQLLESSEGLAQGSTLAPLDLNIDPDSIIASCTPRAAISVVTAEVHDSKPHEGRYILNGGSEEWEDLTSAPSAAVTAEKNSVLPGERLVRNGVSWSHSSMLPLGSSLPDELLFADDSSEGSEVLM

EPHA7 = EPHA7 (Homo sapiens, UniProt Q15375)
DMPK = DMPK (Homo sapiens, UniProt Q09013)
CAMKK1 (CAMKKA) = CAMKK1 (CAMKKA) (Homo sapiens, UniProt Q8N5S9)
Chain of CAMKK1 (CAMKKA) (Q8N5S9 whole entry): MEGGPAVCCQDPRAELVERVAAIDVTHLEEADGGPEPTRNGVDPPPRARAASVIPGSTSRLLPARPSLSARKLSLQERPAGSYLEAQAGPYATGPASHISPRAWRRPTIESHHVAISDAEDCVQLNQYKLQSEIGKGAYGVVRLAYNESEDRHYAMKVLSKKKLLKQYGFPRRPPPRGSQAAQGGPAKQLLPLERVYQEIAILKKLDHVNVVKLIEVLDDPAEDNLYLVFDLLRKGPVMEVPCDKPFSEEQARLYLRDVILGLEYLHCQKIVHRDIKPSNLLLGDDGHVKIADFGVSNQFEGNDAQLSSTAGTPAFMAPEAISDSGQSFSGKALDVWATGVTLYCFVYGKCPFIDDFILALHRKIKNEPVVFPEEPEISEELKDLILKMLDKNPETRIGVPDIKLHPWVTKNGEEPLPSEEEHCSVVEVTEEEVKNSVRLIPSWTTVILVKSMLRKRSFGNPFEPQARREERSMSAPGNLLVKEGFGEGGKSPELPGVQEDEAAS

MYLK4 = MYLK4 (Homo sapiens, UniProt Q86YV6)
DAPK2 = DAPK2 (Homo sapiens, UniProt Q9UIK4)
MAPK8 (JNK1) = MAPK8 (JNK1) (Homo sapiens, UniProt P45983)
DYRK2 = DYRK2 (Homo sapiens, UniProt Q92630)

Chain of AMPK (A1/B1/G2) (Q13131 whole entry): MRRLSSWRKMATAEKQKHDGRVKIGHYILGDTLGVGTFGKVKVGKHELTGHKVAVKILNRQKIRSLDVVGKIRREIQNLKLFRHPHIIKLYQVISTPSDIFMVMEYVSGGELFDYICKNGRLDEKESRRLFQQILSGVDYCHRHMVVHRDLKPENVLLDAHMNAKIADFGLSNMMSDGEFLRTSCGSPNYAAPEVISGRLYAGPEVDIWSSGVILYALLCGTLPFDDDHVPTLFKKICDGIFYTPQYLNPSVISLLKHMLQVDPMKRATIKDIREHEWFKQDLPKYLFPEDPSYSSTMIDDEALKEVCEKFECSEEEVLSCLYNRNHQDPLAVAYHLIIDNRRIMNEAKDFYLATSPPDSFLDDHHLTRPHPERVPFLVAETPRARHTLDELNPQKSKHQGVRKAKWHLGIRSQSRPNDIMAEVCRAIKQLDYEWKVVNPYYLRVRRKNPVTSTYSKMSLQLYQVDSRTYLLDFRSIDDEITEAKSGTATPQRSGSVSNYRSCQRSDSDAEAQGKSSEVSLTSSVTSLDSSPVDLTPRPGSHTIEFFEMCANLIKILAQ
Chain of AMPK (A1/B1/G2) (Q9UGJ0 whole entry partner): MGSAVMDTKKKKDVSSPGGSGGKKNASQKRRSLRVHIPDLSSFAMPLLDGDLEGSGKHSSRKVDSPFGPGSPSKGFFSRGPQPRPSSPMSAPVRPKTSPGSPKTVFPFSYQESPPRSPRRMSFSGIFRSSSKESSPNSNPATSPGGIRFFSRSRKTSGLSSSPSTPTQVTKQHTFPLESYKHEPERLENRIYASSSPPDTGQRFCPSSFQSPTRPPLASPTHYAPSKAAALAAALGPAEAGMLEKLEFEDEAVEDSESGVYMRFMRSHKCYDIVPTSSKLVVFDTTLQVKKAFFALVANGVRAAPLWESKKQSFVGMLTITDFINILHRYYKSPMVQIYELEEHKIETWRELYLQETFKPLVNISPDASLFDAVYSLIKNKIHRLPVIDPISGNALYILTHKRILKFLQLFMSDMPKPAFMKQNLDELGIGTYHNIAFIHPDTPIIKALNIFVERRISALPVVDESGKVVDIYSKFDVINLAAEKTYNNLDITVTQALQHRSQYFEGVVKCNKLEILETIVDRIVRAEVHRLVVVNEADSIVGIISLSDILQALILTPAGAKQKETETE
Chain of AMPK (A1/B1/G2) (Q9Y478 whole entry partner): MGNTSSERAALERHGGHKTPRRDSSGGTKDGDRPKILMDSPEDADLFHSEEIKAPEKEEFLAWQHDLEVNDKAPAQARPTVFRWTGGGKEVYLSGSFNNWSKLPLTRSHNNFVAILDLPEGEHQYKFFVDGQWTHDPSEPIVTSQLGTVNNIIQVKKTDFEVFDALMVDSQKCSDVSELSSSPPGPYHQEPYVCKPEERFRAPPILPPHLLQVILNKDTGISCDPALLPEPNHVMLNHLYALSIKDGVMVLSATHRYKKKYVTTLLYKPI

COc1ccc2nc3cc(Cl)ccc3c(Nc3cc(CN4CCCC4)c(O)c(CN4CCCC4)c3)c2n1 [Pyronaridine, 4-[(7-Chloro-2-methoxybenzo[b][1,5]naphthyridin-10-yl)amino]-2,6-bis(1-pyrrolidinylmethyl)phenol phosphate (1:4)]
inhibition at 1 µM (EIF2AK2 (PKR)): 4%
inhibition at 1 µM (AMPK (A1/B1/G2)): -7%
inhibition at 1 µM (MAP3K5 (ASK1)): -11%
inhibition at 1 µM (MYO3B (MYO3 beta)): 5%
inhibition at 1 µM (ALK R1275Q): 6%
inhibition at 1 µM (TLK1): 12%
inhibition at 1 µM (BMPR2): 8%
inhibition at 1 µM (KIT D820E): -4%
inhibition at 1 µM (SIK3): -2%
inhibition at 1 µM (BRSK2): 4%
inhibition at 1 µM (BRAF): -11%
inhibition at 1 µM (EPHA6): -3%
inhibition at 1 µM (DDR1): -2%
inhibition at 1 µM (CDK2/cyclin E1): 0%
inhibition at 1 µM (CASK): 2%
inhibition at 1 µM (ACVR2A): -6%
inhibition at 1 µM (NUAK2): 2%
inhibition at 1 µM (MAP2K2 (MEK2)): -3%
inhibition at 1 µM (AXL R499C): 3%
inhibition at 1 µM (CDK2/cyclin A1): 5%
inhibition at 1 µM (FYN A): -3%
inhibition at 1 µM (MERTK (cMER) A708S): 0%
inhibition at 1 µM (EPHA7): -3%
inhibition at 1 µM (DMPK): 4%
inhibition at 1 µM (CAMKK1 (CAMKKA)): 15%
inhibition at 1 µM (MYLK4): -9%
inhibition at 1 µM (DAPK2): -6%
inhibition at 1 µM (MAPK8 (JNK1)): 3%
inhibition at 1 µM (DYRK2): -7%
